Measurements from PubChem BioAssay AID2060494 (Molecular Pharmacology Branch, DTP, NCI, 2025).

System: 435261-313-R-J1-PDC complex spheroid viability
Experiment: Anticancer human tumor 435261-313-R-J1-PDC patient-derived colon adenocarcinoma cell line growth inhibition [GQUAD]
Conditions: for IC50: curve of first compound; for viability, T/C: stronger effect = lower value
Outline: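 Multi-cell-type spheroids of tumor cells with HUVEC and mesenchymal stem cells, treated with drug combinations. Concentrations descend in half-log steps from near clinical Cmax, or from 10 microM where Cmax is unknown; viability read-out.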

[1] = second compound 0.0316 µM, first compound 0.0316 µM
[2] = second compound 0.0316 µM, first compound 0.1 µM
[3] = second compound 0.0316 µM, first compound 0.316 µM
[4] = second compound 0.0316 µM, first compound 1 µM
[5] = second compound 0.0316 µM, first compound 3.16 µM
[6] = second compound 0.0316 µM, first compound 10 µM
[7] = second compound 0.1 µM, first compound 0.0316 µM
[8] = second compound 0.1 µM, first compound 0.1 µM
[9] = second compound 0.1 µM, first compound 0.316 µM
[10] = second compound 0.1 µM, first compound 1 µM
[11] = second compound 0.1 µM, first compound 3.16 µM
[12] = second compound 0.1 µM, first compound 10 µM
[13] = second compound 0.316 µM, first compound 0.0316 µM
[14] = second compound 0.316 µM, first compound 0.1 µM
[15] = second compound 0.316 µM, first compound 0.316 µM
[16] = second compound 0.316 µM, first compound 1 µM
[17] = second compound 0.316 µM, first compound 3.16 µM
[18] = second compound 0.316 µM, first compound 10 µM
[19] = second compound 1 µM, first compound 0.0316 µM
[20] = second compound 1 µM, first compound 0.1 µM
[21] = second compound 1 µM, first compound 0.316 µM
[22] = second compound 1 µM, first compound 1 µM
[23] = second compound 1 µM, first compound 3.16 µM
[24] = second compound 1 µM, first compound 10 µM
[25] = second compound 3.16 µM, first compound 0.0316 µM
[26] = second compound 3.16 µM, first compound 0.1 µM
[27] = second compound 3.16 µM, first compound 0.316 µM
[28] = second compound 3.16 µM, first compound 1 µM
[29] = second compound 3.16 µM, first compound 3.16 µM
[30] = second compound 3.16 µM, first compound 10 µM
[31] = second compound 10 µM, first compound 0.0316 µM
[32] = second compound 10 µM, first compound 0.1 µM
[33] = second compound 10 µM, first compound 0.316 µM
[34] = second compound 10 µM, first compound 1 µM
[35] = second compound 10 µM, first compound 3.16 µM
[36] = second compound 10 µM, first compound 10 µM
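Further: spheroids exposed to the agents for seven days before readout.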
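Wherever viability, T/C is given: percent of vehicle control viability with DMSO wells as 100%.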

`CC1COCCN1c1cc(-c2ccnn2C)c2ccnc(-c3ccn[nH]3)c2n1` (centres undefined) + CN(C)c1ccc(Nc2c3ccc(NC(=O)CCN4CCCC4)cc3nc3cc(NC(=O)CCN4CCCC4)ccc23)cc1 gave an IC50 (second compound 0.0316 µM) of 804 nM, an IC50 (second compound 0.1 µM) of 500 nM and an IC50 (second compound 0.316 µM) of 725 nM. The IC50 (second compound 1 µM) was 1030 nM, the IC50 (second compound 3.16 µM) was 145 nM and the IC50 (second compound 10 µM) was under 31.6 nM. The viability, T/C [1] was 87%, the viability, T/C [2] was 76% and the viability, T/C [3] was 76.2%. The viability, T/C [4] was 43.6%, the viability, T/C [5] was 28.8% and the viability, T/C [6] was 25.2%. The viability, T/C [7] was 88.4%, the viability, T/C [8] was 85.9% and the viability, T/C [9] was 55.9%. The viability, T/C [10] was 38.5%, the viability, T/C [11] was 38.8% and the viability, T/C [12] was 23.1%. The viability, T/C [13] was 71.8%, the viability, T/C [14] was 80.7% and the viability, T/C [15] was 60.4%. It also gave a viability, T/C [16] of 44.5%, a viability, T/C [17] of 32.8% and a viability, T/C [18] of 22.9%. The viability, T/C [19] was 64.6%, the viability, T/C [20] was 69.5% and the viability, T/C [21] was 61.8%. The viability, T/C [22] was 48.2%, the viability, T/C [23] was 35% and the viability, T/C [24] was 17.2%. It also gave a viability, T/C [25] of 89%, a viability, T/C [26] of 48.3% and a viability, T/C [27] of 41.5%. For the same molecule, the viability, T/C [28] was 24.5%, the viability, T/C [29] was 16.4% and the viability, T/C [30] was 4.38%. For the same molecule, the viability, T/C [31] was 27.1%, the viability, T/C [32] was 22.1% and the viability, T/C [33] was 21.6%. The viability, T/C [34] was 14.1%, the viability, T/C [35] was 6.17% and the viability, T/C [36] was 1.51%.

For `CC1COCCN1c1cc(C2(O)CC3CCC(C2)O3)c2cnn(-c3ccn[nH]3)c2n1` (centres undefined) + CN(C)c1ccc(Nc2c3ccc(NC(=O)CCN4CCCC4)cc3nc3cc(NC(=O)CCN4CCCC4)ccc23)cc1, the IC50 (second compound 0.0316 µM) was 193 nM, the IC50 (second compound 0.1 µM) was 316 nM and the IC50 (second compound 0.316 µM) was 225 nM. It also gave an IC50 (second compound 1 µM) of 257 nM, an IC50 (second compound 3.16 µM) of under 31.6 nM and an IC50 (second compound 10 µM) of under 31.6 nM. For the same molecule, the viability, T/C [1] was 63%, the viability, T/C [2] was 58.1% and the viability, T/C [3] was 45.1%. It also gave a viability, T/C [4] of 27.4%, a viability, T/C [5] of 23.2% and a viability, T/C [6] of 12%. The viability, T/C [7] was 71.3%, the viability, T/C [8] was 82.8% and the viability, T/C [9] was 47.3%. For the same molecule, the viability, T/C [10] was 26.8%, the viability, T/C [11] was 21.1% and the viability, T/C [12] was 10.8%. It also gave a viability, T/C [13] of 75.1%, a viability, T/C [14] of 61.7% and a viability, T/C [15] of 45.7%. For the same molecule, the viability, T/C [16] was 28.9%, the viability, T/C [17] was 25% and the viability, T/C [18] was 11.6%. The viability, T/C [19] was 82.7%, the viability, T/C [20] was 64.5% and the viability, T/C [21] was 48%. The viability, T/C [22] was 28.3%, the viability, T/C [23] was 21.1% and the viability, T/C [24] was 7.4%. It also gave a viability, T/C [25] of 48.6%, a viability, T/C [26] of 44.3% and a viability, T/C [27] of 31.9%. It also gave a viability, T/C [28] of 13.3%, a viability, T/C [29] of 9.48% and a viability, T/C [30] of 3.11%. The viability, T/C [31] was 26.9%, the viability, T/C [32] was 18.5% and the viability, T/C [33] was 17%. It also gave a viability, T/C [34] of 7.23%, a viability, T/C [35] of 3.13% and a viability, T/C [36] of 1.2%.
